Experiments:
mCGRP receptor = mCGRP receptor (Mus musculus, UniProt Q9R1W5+Q9WTJ5); assay: cell-based; conditions: SEM
Protocol: (§1) Cells were grown in a humidified incubator at 37°C and 5% CO2 and seeded into 96-well plates at a density of 20,000 cells/well. The following day, Cos-7 cells were transiently transfected using Polyethylenimine (PEI) using a 1:1 ratio of receptor:RAMP DNA.
(§2) Transfected Cos-7 cells were incubated with agonist in the presence or absence of antagonist at 37°C for 15 min. cAMP production was terminated by aspirating all the media in the wells, followed by the addition of 50 μl of ice-cold ethanol.
(§3) The Hill slope was constrained to one following agonist analyses. The Schild slope was also constrained to one. The pA2 and pKB values were obtained from the Schild analysis. For washout experiments, the same method of analysis was applied to the antagonists, but with minor revisions. The Schild analysis relied on the matched control agonist curves i.e. those derived from the same experimental conditions as the agonist + antagonist curves. Normalization was also specific to the matched control agonist curves.
(§4) Mean pEC50, pKB and pA2 values from at least three independent experiments before normalization were also presented as mean ± SEM. pEC50, pKB and pA2 values from independent experiments were grouped and compared by unpaired Student’s t-test or by one-way ANOVA. […]

mAMY1 receptor = target: T1, mAMY1 receptor (Mus musculus, UniProt Q60755+Q9WTJ5); assay: cell-based; conditions: SEM
T1 sequence (Q60755 42-496 isoform Q60755-2 limits assumed): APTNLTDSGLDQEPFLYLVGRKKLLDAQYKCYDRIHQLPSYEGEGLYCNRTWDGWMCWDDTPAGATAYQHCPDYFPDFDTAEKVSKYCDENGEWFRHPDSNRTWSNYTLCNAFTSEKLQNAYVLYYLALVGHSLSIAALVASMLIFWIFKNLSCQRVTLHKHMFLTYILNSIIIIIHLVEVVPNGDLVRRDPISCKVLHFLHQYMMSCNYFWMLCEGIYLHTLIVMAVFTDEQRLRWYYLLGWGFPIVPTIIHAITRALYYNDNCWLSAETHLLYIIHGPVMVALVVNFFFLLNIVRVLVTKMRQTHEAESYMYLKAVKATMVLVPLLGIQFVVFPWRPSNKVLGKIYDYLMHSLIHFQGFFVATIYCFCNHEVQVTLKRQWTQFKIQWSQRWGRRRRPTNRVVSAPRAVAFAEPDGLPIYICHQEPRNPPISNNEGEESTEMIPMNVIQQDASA
T1 sequence (Q9WTJ5 27-148): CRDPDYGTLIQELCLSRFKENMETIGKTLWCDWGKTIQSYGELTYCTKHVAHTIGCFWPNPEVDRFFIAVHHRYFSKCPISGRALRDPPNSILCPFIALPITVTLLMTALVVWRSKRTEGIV
Protocol: as §1, §2, §3, §4

mCGRP receptor, sequence (Q9R1W5 23-463, one chain of several): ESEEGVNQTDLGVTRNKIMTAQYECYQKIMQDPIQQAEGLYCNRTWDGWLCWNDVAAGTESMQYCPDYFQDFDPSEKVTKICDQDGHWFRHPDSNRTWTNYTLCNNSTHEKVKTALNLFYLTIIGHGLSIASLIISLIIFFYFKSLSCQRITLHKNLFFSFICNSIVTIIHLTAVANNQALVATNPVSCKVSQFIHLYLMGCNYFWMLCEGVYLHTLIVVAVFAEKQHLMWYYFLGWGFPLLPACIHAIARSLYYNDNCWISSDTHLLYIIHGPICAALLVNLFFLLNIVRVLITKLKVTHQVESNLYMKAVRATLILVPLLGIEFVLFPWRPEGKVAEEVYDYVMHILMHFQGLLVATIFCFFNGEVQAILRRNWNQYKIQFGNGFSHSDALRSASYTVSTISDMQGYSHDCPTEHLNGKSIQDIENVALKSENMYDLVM

`CC(C)C[C@H](NC(=O)CNC(=O)[C@H](C)NC(=O)[C@H](CC(C)C)NC(=O)[C@H](CCCNC(=N)N)NC(=O)[C@H](Cc1cnc[nH]1)NC(=O)[C@@H](NC(=O)[C@@H](N)C(C)C)[C@@H](C)O)C(=O)N[C@@H](CC(C)C)C(=O)N[C@@H](CO)C(=O)N[C@@H](CCCNC(=N)N)C(=O)N[C@@H](CO)C(=O)NCC(=O)NCC(=O)N[C@H](C(=O)N[C@H](C(=O)N[C@@H](CCCCN)C(=O)N[C@@H](CC(N)=O)C(=O)N[C@@H](CC(N)=O)C(=O)N[C@@H](Cc1ccccc1)C(=O)N[C@H](C(=O)N1CCC[C@H]1C(=O)N[C@H](C(=O)N[C@@H](CC(N)=O)C(=O)N[C@H](C(=O)NCC(=O)N[C@@H](CO)C(=O)N[C@@H](CCCCN)C(=O)N[C@@H](C)C(=O)N[C@@H](Cc1ccccc1)C(N)=O)C(C)C)[C@@H](C)O)C(C)C)C(C)C)C(C)C` [αCGRP8-37] was tested, and the Kb (mCGRP receptor) was 1 nM and the Kb (mAMY1 receptor) was 24.5 nM.

— publication PMC8942775, “Lipidated Calcitonin Gene-Related Peptide (CGRP) Peptide Antagonists Retain CGRP Receptor Activity and Attenuate CGRP Action In Vivo” (Frontiers in Pharmacology, 2022)
